Values quoted from earlier work in US20240099995A1, “METHOD OF PREPARING A TOPICAL PHARMACEUTICAL COMPOSITION” (PHEBRA PTY LTD, priority 2021, published 2024).
Where two headings read alike, the source gives them in different places.

Key:
[1] = not given; remark: listed apart in the source

Row | concentration loss (4° C. and above, after 2 days) | concentration loss (22° C., within 90 minutes) | time stable (stored in a freezer, acidic and basic conditions) | Structure (SMILES) | duration of topical anesthesia ([1]; with adrenaline) | duration of topical anesthesia ([1]; without adrenalin)
1 | 100% | 100% | at least 28 days | CNCC(O)c1ccc(O)c(O)c1 (centres unmarked) [adrenaline] | – | –
2 | – | – | – | CCN(CC)CC(=O)Nc1c(C)cccc1C [lignocaine] | 120 to 360 min | 30 to 60 min
